Test results from PMC10698726 (Molecular Pharmaceutics, 2023).
Read-outs that look alike come from different tables or passages of the source.

T1: OCT3 (Homo sapiens, UniProt O75751)
T1 construct: expressed in transfected cells; host or cells: HEK293
T1 sequence (O75751 1-556): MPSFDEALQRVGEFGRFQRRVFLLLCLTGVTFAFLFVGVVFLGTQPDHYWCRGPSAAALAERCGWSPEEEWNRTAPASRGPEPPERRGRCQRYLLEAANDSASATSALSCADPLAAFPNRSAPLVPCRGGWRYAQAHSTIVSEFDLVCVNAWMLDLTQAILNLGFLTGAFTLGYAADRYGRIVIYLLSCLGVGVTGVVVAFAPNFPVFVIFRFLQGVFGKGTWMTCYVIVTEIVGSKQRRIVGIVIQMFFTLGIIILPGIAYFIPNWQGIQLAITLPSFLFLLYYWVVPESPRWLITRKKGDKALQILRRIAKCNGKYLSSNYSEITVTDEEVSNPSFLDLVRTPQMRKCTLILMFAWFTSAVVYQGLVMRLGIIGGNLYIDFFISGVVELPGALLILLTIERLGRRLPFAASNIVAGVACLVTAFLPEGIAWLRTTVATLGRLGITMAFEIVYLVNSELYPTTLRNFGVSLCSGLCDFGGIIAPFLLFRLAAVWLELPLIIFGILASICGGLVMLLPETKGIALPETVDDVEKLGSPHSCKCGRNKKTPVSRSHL

T2: OCT2 (Homo sapiens, UniProt O15244)
T2 sequence (O15244 1-555): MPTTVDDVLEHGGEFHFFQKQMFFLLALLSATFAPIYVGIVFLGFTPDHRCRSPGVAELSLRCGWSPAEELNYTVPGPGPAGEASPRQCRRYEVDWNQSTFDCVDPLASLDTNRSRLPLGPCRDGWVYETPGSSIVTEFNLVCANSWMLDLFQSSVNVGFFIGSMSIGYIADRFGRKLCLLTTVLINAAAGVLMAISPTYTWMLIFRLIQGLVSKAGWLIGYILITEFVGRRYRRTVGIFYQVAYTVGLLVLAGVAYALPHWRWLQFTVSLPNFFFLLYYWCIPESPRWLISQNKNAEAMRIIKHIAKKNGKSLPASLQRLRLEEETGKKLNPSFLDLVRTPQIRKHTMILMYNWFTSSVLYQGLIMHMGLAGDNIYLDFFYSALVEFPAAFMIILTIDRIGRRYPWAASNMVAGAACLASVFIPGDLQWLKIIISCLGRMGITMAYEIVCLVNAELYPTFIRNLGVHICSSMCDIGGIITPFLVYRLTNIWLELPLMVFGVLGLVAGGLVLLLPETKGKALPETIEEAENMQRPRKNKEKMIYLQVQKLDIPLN

T3: OCT1 (Homo sapiens, UniProt O15245)
T3 sequence (O15245 1-554): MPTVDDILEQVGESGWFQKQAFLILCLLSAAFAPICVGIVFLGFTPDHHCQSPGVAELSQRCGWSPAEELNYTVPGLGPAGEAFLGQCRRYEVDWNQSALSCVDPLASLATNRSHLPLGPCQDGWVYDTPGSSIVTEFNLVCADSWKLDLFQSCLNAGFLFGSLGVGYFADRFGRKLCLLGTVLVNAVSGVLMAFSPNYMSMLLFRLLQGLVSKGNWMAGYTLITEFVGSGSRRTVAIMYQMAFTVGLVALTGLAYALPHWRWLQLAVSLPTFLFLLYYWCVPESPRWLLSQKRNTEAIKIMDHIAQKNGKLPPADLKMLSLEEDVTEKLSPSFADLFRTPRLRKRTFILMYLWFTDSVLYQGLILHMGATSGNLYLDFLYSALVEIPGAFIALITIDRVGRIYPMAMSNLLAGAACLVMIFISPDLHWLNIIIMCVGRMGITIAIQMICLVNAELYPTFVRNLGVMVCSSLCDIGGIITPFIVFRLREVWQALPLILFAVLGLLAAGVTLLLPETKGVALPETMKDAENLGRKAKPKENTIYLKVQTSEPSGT

B1: OCT2 (Homo sapiens) (protein)
chain: T2 sequence (O15244 1-555)

Columns and labels:
OCT3 [1] = target: T1, OCT3; parameters: method as in earlier work; details: ref 3 (Gebauer et al., 2022, supplement), cited from earlier work; for Km: read-out: Km ± SEM
OCT2 [2] = target: T2, OCT2; assay: Concentration-dependent uptake of model substrates, OCT2-overexpressing HEK293 cells; assay type: in vitro ADME; parameters: expressed in transfected cells; host or cells: HEK293; details: this study
Description: (§1) Koepsell and Gorbulev (University of Würzburg, Germany).
Prior to inhibition studies, the used model substrates were validated in concentration-dependent uptake experiments if no literature data were available (Table S2 and Figures S2 and S3). Thereby, we ensured that the model substrate concentration used in the subsequent inhibition experiments was sufficiently below the Km value of its uptake kinetics. […] On the day of the experiment, the cells were washed once with prewarmed to 37 °C HBSS (Thermo Fisher Scientific, Darmstadt, Germany) supplemented with 10 mM HEPES and pH adjusted to 7.4 (Sigma-Aldrich)—hereafter termed HBSS+. For concentration-dependent experiments, the cells were incubated with increasing substrate concentrations for 2 min. Uptake was terminated by adding ice-cold HBSS+. Afterward, the cells were washed twice with ice-cold HBSS+, and cell lysis was done with 80% (v/v) acetonitrile (LGC Standards, Wesel, Germany) to which an internal standard for eventual LC–MS/MS analysis had been added. Intracellularly accumulated substrates were then quantified by LC–MS/MS analysis, and calibration was performed with known concentrations of the respective substances. All uptake data were normalized to the number of seeded cells by measuring the total protein content in radioimmunoprecipitation assay buffer-lysed cells in a bicinchoninic acid assay.[29]

OCT2 [3] = target: T2, OCT2; assay: Inhibition of model substrate uptake in OCT2-overexpressing HEK293 cells; details: for inhibition at 5 min, 20 μM / ASP+ inhibition [%] / N-Ethyllidocaine inhibition [%] / (S,S)-Ethambutol inhibition [%]: OCT2, 20 μM inhibitor; for IC50: IC50, OCT2, Table S5, 2 μM ASP+ as model substrate; for inhibition at 5 min, 20 μM / IC50 / ASP+ inhibition [%] / N-Ethyllidocaine inhibition [%] / (S,S)-Ethambutol inhibition [%]: 5 min
OCT3 [4] = target: T1, OCT3; assay: Inhibition of model substrate uptake in OCT3-overexpressing HEK293 cells; assay type: cell-based
Procedure, shortened: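 IC50 values were fitted with a Hill equation from net uptake, calculated as uptake in overexpressing HEK293 cells minus empty-vector control uptake. Cells were exposed for 5 min to 2 μM model substrate alone, with 20 μM inhibitor, or with a concentration series. Uptake was quantified by ASP^+ fluorescence or LC–MS/MS after lysis in 80% acetonitrile.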

OCT1 = target: T3, OCT1; assay: Inhibition of model substrate uptake in OCT1-overexpressing HEK293 cells; assay type: cell-based; parameters: expressed in transfected cells; host or cells: HEK293; details: for inhibition at 5 min, 20 μM: OCT1-overexpressing HEK293 cells
Description: as §1
Fluorescence quantification was performed in technical duplicates.

not read = substrate: CCC(CO)NCCNC(CC)CO; assay: not read; details: other: OCT2, this study
[5] = human, OCT2-overexpressing HEK293 cells, pH 7.4, probe (S,S)-ethambutol (2 μM), (S,S)-Ethambutol inhibition [%], 2 μM (S,S)-ethambutol
[6] = human, OCT2-overexpressing HEK293 cells, pH 7.4, probe ASP+ (2 μM), ASP+ inhibition [%], 2 μM ASP+
[7] = human, OCT2-overexpressing HEK293 cells, pH 7.4, probe N-ethyllidocaine (2 μM), N-Ethyllidocaine inhibition [%], 2 μM N-ethyllidocaine
[8] = HEK293, 5 min, read-out: (S)-Zolmitriptan inhibition [%], OCT3, 20 μM inhibitor, 2 μM (S)-zolmitriptan, 5 min
[9] = HEK293, 5 min, read-out: (S,S)-Ethambutol inhibition [%], OCT3, 20 μM inhibitor, 2 μM (S,S)-ethambutol, 5 min
[10] = HEK293, OCT3, 20 μM inhibitor, 2 μM ASP+, 5 min, read-out: ASP+ inhibition [%]
[11] = human, pH 7.4, probe (S,S)-ethambutol (2 μM), (S,S)-Ethambutol inhibition [%], OCT1, 20 μM inhibitor, 2 μM (S,S)-ethambutol, 5 min
[12] = human, pH 7.4, probe ASP+ (2 μM), OCT1, 20 μM inhibitor, 2 μM ASP+, 5 min, mean of three experiments, read-out: ASP+ inhibition [%]
[13] = human, pH 7.4, probe sumatriptan (2 μM), OCT1, 20 μM inhibitor, 2 μM sumatriptan, 5 min, read-out: Sumatriptan inhibition [%]
[14] = HEK293, 5 min, read-out: (S)-Zolmitriptan inhibition [%]
[15] = HEK293, 5 min, read-out: (S,S)-Ethambutol inhibition [%]
[16] = OCT1, 20 μM inhibitor, 2 μM ASP+, 5 min, mean of three experiments
[17] = OCT3, 20 μM inhibitor, 2 μM (S)-zolmitriptan, 5 min
[18] = OCT3, 20 μM inhibitor, 2 μM ASP+, 5 min

Row | Molecule | inhibition at 5 min, 20 μM (OCT2 [3]; [5]) | inhibition at 5 min, 20 μM (OCT2 [3]; [6]) | inhibition at 5 min, 20 μM (OCT2 [3]; [7]) | inhibition at 20 µM (OCT3 [4]; [8]) | inhibition at 20 µM (OCT3 [4]; [9]) | inhibition at 20 µM (OCT3 [4]; [10]) | inhibition at 5 min, 20 μM (OCT1; [11]) | inhibition at 5 min, 20 μM (OCT1; [12]) | inhibition at 5 min, 20 μM (OCT1; [13]) | IC50 (OCT2 [3]) | N-Ethyllidocaine inhibition [%] (OCT2 [3]; 2 μM N-ethyllidocaine) | further results
1 | NC(N)=Nc1nc(CSCCC(N)=NS(N)(=O)=O)cs1 [Famotidine] |  |  |  |  |  |  |  |  |  |  |  | Km (OCT3 [1]): 8.91 µM; Clint ± SEM (OCT3 [1]): 27.2; vmax ± SEM [pmol × mg Protein−1 × min−1] (OCT3 [1]): 242 pmol × mg Protein−1 × min−1
2 | CC[N+](CC)(CC)CC(=O)Nc1c(C)cccc1C [N-Ethyllidocaine] |  |  |  |  |  |  |  |  |  |  |  | vmax ± SEM [pmol × mg Protein−1 × min−1] (OCT2 [2]): 5172 pmol × mg Protein−1 × min−1; Km (OCT2 [2]; read-out: Km ± SEM): 87.7 µM; Clint ± SEM (OCT2 [2]; vmax over Km): 58.9; Km (OCT3 [1]): 46.3 µM; Clint ± SEM (OCT3 [1]): 8.80; vmax ± SEM [pmol × mg Protein−1 × min−1] (OCT3 [1]): 407 pmol × mg Protein−1 × min−1
3 | Cc1cccc(C)c1OC[C@@H](C)N [(R)-Mexiletine] | 52.1% | 47% | 52.2% | 25% | 11.6% | -17.2% | 79.6% | 30.4% | 85.6% |  |  | 
4 | C#CCN(C)[C@H](C)Cc1ccccc1 [(R)-Deprenyl] |  |  |  |  |  | 12.6% |  |  |  | 2.4 µM | 52.3% | ASP+ inhibition [%] (OCT2 [3]; 2 μM ASP+): 101.0%; inhibition at 20 µM (OCT3 [4]; [14]): 18%; inhibition at 20 µM (OCT3 [4]; [15]): 24.2%; ASP+ inhibition [%] (OCT1; [16]): 21.6%; Sumatriptan inhibition [%] (OCT1; human, pH 7.4): 62.3%
5 | C=C[C@H]1C[N@@]2CC[C@H]1C[C@@H]2[C@@H](O)c1ccnc2ccc(OC)cc12 [Quinidine] | 13.3% | 93.4% | 50.8% | 67% | 85.9% | 38.9% | 61.7% | 13.1% | 41.3% |  |  | IC50 (OCT3 [4]; OCT3, Table S5, 2 μM ASP+ or ethambutol as model substrate, 5 min, read-out: IC50): 249 µM
6 | OC[C@@H](O)CN1CCN(c2ccccc2)CC1 [(S)-Dropropizine] |  |  |  |  |  |  |  |  |  | 55.6 µM | 7.5% | (S,S)-Ethambutol inhibition [%] (OCT2 [3]; 2 μM (S,S)-ethambutol): 20.5%; ASP+ inhibition [%] (OCT2 [3]; 2 μM ASP+): 51.1%; (S)-Zolmitriptan inhibition [%] (OCT3 [4]; [17]): -17.1%; (S,S)-Ethambutol inhibition [%] (OCT3 [4]; OCT3, 20 μM inhibitor, 2 μM (S,S)-ethambutol, 5 min): 6.7%; ASP+ inhibition [%] (OCT3 [4]; [18]): 29.1%; (S,S)-Ethambutol inhibition [%] (OCT1; OCT1, 20 μM inhibitor, 2 μM (S,S)-ethambutol, 5 min): 27.4%; ASP+ inhibition [%] (OCT1; [16]): 24.6%; Sumatriptan inhibition [%] (OCT1; OCT1, 20 μM inhibitor, 2 μM sumatriptan, 5 min): 30.4%
7 | CNCC[C@@H](Oc1ccc(C(F)(F)F)cc1)c1ccccc1 [(R)-Fluoxetine] |  | 65.6% |  |  |  |  | 77.5% | 45.6% | 83.4% |  | 48.9% | (S,S)-Ethambutol inhibition [%] (OCT2 [3]; 2 μM (S,S)-ethambutol): 28.2%; ASP+ inhibition [%] (OCT3 [4]): -6.0%; inhibition at 20 µM (OCT3 [4]; [14]): 17%; inhibition at 20 µM (OCT3 [4]; [15]): 9.6%
8 | CCC(CO)NCCNC(CC)CO [(R,R)-Ethambutol] |  | 34.4% | 7.7% |  |  |  |  | 7.7% | 17.9% |  |  | (S)-Zolmitriptan inhibition [%] (OCT3 [4]; [17]): -3.7%; ASP+ inhibition [%] (OCT3 [4]; [18]): 9.1%
9 | CC(C)(C)NC[C@@H](O)COc1nsnc1N1CCOCC1 [(R)-Timolol] | 12% | 37.2% | 24.7% | 7.6% | 8.2% | 28.6% | 32.1% | 12.9% | 55% | 121 µM |  | selectivity ratio at 5 min (OCT2 [3]; human, OCT2-overexpressing HEK293 cells, pH 7.4): 2
10 | B1 |  |  |  |  |  |  |  |  |  |  |  | Km (not read): 163 µM; Vmax (not read): 0.00597 µmol/min/mg
